# Measured values reported in ChEMBL document CHEMBL1201862, “PubChem BioAssay data set” (2004).
#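 Method: 48-hour compound exposure of cells in 96-well plates, five concentrations, linear interpolation of endpoints. GI50: concentration for 50% inhibition of growth.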 Active and inactive are the calls of the source. No stated cut-off is given here; in the data, active = GI50 up to about 1.1 µM and inactive = higher.
# Tests used:
# Test in all cases: inhibition of tumour cell growth, NCI panel, 48 h
# [1] = system: DLD-1
# [2] = system: KM-20L2
# [3] = system: LXFL 529
# [4] = system: M19-MEL
# [5] = system: SNB-78
# [6] = system: XF498
# [7] = system: DMS-273
# [8] = system: RXF 631
# [9] = system: HOP-18
SMILES,GI50 [1],GI50 [2],GI50 [3],GI50 [4],GI50 [5],GI50 [6],GI50 [7],GI50 [8],GI50 [9]
COc1ccc(C=C2C(=O)OC(C)(C)OC2=O)cc1OC,> 100 µM (inactive),> 100 µM (inactive),> 100 µM (inactive),> 100 µM (inactive),> 100 µM (inactive),> 100 µM (inactive),–,–,–
Cc1ccc(NC(=O)C(=O)Cc2nc3ccccc3o2)c(C)c1,> 100 µM (inactive),> 100 µM (inactive),> 100 µM (inactive),> 100 µM (inactive),> 100 µM (inactive),> 100 µM (inactive),> 100 µM (inactive),> 100 µM (inactive),–
O=c1/c(=C/c2c(O)ccc3ccccc23)sc2nc3ccccc3n12,> 100 µM (inactive),> 100 µM (inactive),> 100 µM (inactive),> 100 µM (inactive),> 100 µM (inactive),> 100 µM (inactive),> 100 µM (inactive),> 100 µM (inactive),> 100 µM (inactive)
O=[PH](O)c1ccsc1,> 100 µM (inactive),> 100 µM (inactive),> 100 µM (inactive),> 100 µM (inactive),–,–,> 100 µM (inactive),> 100 µM (inactive),> 100 µM (inactive)
COc1cc(C(C#N)NNc2nc(C)cc(O)n2)cc(OC)c1OC (stereo unspecified),> 100 µM (inactive),> 100 µM (inactive),> 100 µM (inactive),> 100 µM (inactive),> 100 µM (inactive),–,> 100 µM (inactive),–,> 100 µM (inactive)
COc1ccc(/C=C/CN(C)CCc2ccccc2)cc1OC,–,42.3 µM (inactive),62.1 µM (inactive),> 100 µM (inactive),> 100 µM (inactive),–,> 100 µM (inactive),–,–
O=C(CCc1n[nH]c(=S)o1)Nc1cc(Cl)c(Cl)cc1Cl,29 µM (inactive),45.8 µM (inactive),44.8 µM (inactive),> 100 µM (inactive),> 100 µM (inactive),–,24.3 µM (inactive),44.6 µM (inactive),58.7 µM (inactive)
COc1cccc2ccc3c(c12)C(=O)OC31CCc2c(C)cccc21 (stereo unspecified),8.79 µM (inactive),15 µM (inactive),15 µM (inactive),15.5 µM (inactive),39.1 µM (inactive),14.4 µM (inactive),6.81 µM (inactive),–,> 31.6 µM (inactive)
O=C1CCC2CCc3cccc4oc1c2c34 (stereo unspecified),> 100 µM (inactive),> 100 µM (inactive),> 100 µM (inactive),> 100 µM (inactive),> 100 µM (inactive),> 100 µM (inactive),> 100 µM (inactive),–,> 100 µM (inactive)
C=C1C(C(=O)O)C1C(=O)O (stereo unspecified),> 100 µM (inactive),> 100 µM (inactive),–,> 100 µM (inactive),> 100 µM (inactive),> 100 µM (inactive),> 100 µM (inactive),–,> 100 µM (inactive)
Cc1ccc(S(=O)(=O)n2c(-c3ccccc3)c(-c3ccccc3)c3ccccc32)cc1,> 100 µM (inactive),> 100 µM (inactive),> 100 µM (inactive),> 100 µM (inactive),–,> 100 µM (inactive),> 100 µM (inactive),–,> 100 µM (inactive)
CCOc1cc(/C=C/C=C/C=C/c2ccc(N(C)C)cc2)[s+]c2ccccc12,–,–,16.3 µM (inactive),25 µM (inactive),22.5 µM (inactive),23.8 µM (inactive),73.8 µM (inactive),> 100 µM (inactive),–
COCCNC(=O)C1C(=O)C(=O)N(CCOC)C1=O (stereo unspecified),> 100 µM (inactive),> 100 µM (inactive),> 100 µM (inactive),> 100 µM (inactive),> 100 µM (inactive),–,> 100 µM (inactive),> 100 µM (inactive),> 100 µM (inactive)
CC(C)CC(NC(=O)OC(C)(C)C)C(=O)Nc1ccc(Nc2nc(F)nc(-c3c4ccccc4c4n3CCS4)n2)cc1 (stereo unspecified),20 µM (inactive),18.3 µM (inactive),19.5 µM (inactive),–,21.2 µM (inactive),25.2 µM (inactive),16.9 µM (inactive),–,24.4 µM (inactive)
CSc1ncnc2c1CCN2,–,–,> 100 µM (inactive),> 100 µM (inactive),> 100 µM (inactive),–,–,–,–
CCOC(=O)C1Sc2ccccc2N=C1C (stereo unspecified),> 100 µM (inactive),> 100 µM (inactive),> 100 µM (inactive),> 100 µM (inactive),> 100 µM (inactive),> 100 µM (inactive),–,–,> 100 µM (inactive)
COC(=O)C(=O)C(C(=O)OC)C(=O)C(=O)Nc1cc(Cl)c(C)cc1S(=O)(=O)O (stereo unspecified),> 100 µM (inactive),> 100 µM (inactive),> 100 µM (inactive),> 100 µM (inactive),> 100 µM (inactive),> 100 µM (inactive),> 100 µM (inactive),–,> 100 µM (inactive)
O=C(Nc1ccc(Cl)cc1)c1cccc([N+](=O)[O-])c1O,3.18 µM (inactive),4.43 µM (inactive),3.1 µM (inactive),2.8 µM (inactive),4.27 µM (inactive),2.64 µM (inactive),3.13 µM (inactive),–,0.53 µM (active)
O=C(COc1ccccc1Cl)N1N=C(c2ccc(Cl)cc2)CC1(O)c1ccccc1 (stereo unspecified),> 100 µM (inactive),> 100 µM (inactive),> 100 µM (inactive),> 100 µM (inactive),> 100 µM (inactive),> 100 µM (inactive),> 100 µM (inactive),> 100 µM (inactive),–
COC(=O)C12C3C4C5(C(=O)OC)C(C1C35C(=O)N(C(C)C)C(C)C)C42C(=O)N(C(C)C)C(C)C (stereo unspecified),> 25.6 µM (inactive),> 50 µM (inactive),> 50 µM (inactive),> 47.8 µM (inactive),> 50 µM (inactive),–,> 30.8 µM (inactive),–,> 50 µM (inactive)
COc1cc2c(cc1O)[C@H](C)C(c1ccccc1OC)O2 (stereo partly specified),4.75 µM (inactive),5.07 µM (inactive),8 µM (inactive),3.77 µM (inactive),5.78 µM (inactive),5.19 µM (inactive),2.67 µM (inactive),–,> 100 µM (inactive)
CC(C)C1NC(=O)[C@H](C)OC(=O)[C@@H](C(C)C)NC(=O)[C@@H](C)OC(=O)C(C(C)C)NC(=O)[C@H](C)OC1=O (stereo partly specified),> 59.6 µM (inactive),56.4 µM (inactive),> 66.2 µM (inactive),> 55.5 µM (inactive),> 100 µM (inactive),94 µM (inactive),59.2 µM (inactive),–,> 100 µM (inactive)
O=C(Cc1ccccc1F)NC1=C(Cl)C(=O)c2ccccc2C1=O,–,8.43 µM (inactive),0.405 µM (active),0.461 µM (active),–,0.706 µM (active),1.52 µM (inactive),–,0.668 µM (active)
CCCN(CCC)C(=O)Cc1c2n(c3ccccc13)CCCc1ccccc1-2,13.6 µM (inactive),14.4 µM (inactive),13.6 µM (inactive),14.8 µM (inactive),12.3 µM (inactive),15.1 µM (inactive),11 µM (inactive),–,16.3 µM (inactive)
CC1=C2C(=CO[C@H](C)[C@H]2C)C(O)=C(C(=O)O)C1=O [CITRININ],18.2 µM (inactive),23.8 µM (inactive),–,24.5 µM (inactive),11.2 µM (inactive),5.55 µM (inactive),44 µM (inactive),–,15.2 µM (inactive)
COc1cc2ccc(=O)oc2cc1O [SCOPOLETIN],83.2 µM (inactive),187 µM (inactive),–,72.4 µM (inactive),307 µM (inactive),63.7 µM (inactive),36.3 µM (inactive),–,150 µM (inactive)
